Laboratory results reported in ChEMBL document CHEMBL3046671, “Molecular design, synthesis and biological activities of amidines as new ketol-acid reductoisomerase inhibitors” (Chin Chem Lett, 2008).
Structures can show the parent of a compound that is named as a salt. Active and inactive are the calls of the source. No cut-off for these calls is given here.

Key:
[1] = target: Ketol-acid reductoisomerase, chloroplastic (Oryza sativa subsp. japonica, UniProt Q65XK0); experiment: Inhibition of Oryza sativa KARI (rice)
[2] = test system: Echinochloa crus-galli; experiment: Herbicidal activity against Echinochloa crus-galli (barnyard grass) assessed as inhibition at 100 ug/ml by barnyardgrass cup test; format: functional
[3] = test system: Echinochloa crus-galli; experiment: Herbicidal activity against Echinochloa crus-galli (barnyard grass) assessed as inhibition at 10 ug/ml by barnyardgrass cup test; format: functional
[4] = test system: Brassica napus; experiment: Herbicidal activity against Brassica napus (oilseed rape) assessed as inhibition at 100 ug/ml by rape toot test; format: functional
[5] = test system: Brassica napus; experiment: Herbicidal activity against Brassica napus (oilseed rape) assessed as inhibition at 10 ug/ml by rape toot test; format: functional
[6] = target: T1, Ketol-acid reductoisomerase (NADP(+)) (Escherichia coli (strain K12), UniProt P05793); experiment: Inhibition of Escherichia coli KARI
T1 sequence (P05793 whole entry): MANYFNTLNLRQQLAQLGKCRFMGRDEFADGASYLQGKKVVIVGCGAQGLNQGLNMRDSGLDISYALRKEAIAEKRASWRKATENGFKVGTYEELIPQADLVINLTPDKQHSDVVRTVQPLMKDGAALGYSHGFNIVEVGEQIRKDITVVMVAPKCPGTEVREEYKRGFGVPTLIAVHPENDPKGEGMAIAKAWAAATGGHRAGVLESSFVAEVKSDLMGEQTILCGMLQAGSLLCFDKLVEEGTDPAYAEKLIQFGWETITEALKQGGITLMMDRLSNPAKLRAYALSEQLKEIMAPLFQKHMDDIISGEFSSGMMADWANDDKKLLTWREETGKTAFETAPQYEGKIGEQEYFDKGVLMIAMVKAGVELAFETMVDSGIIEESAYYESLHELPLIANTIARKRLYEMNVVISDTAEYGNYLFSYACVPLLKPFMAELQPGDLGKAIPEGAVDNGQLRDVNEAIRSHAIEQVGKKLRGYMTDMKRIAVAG

Ketol-acid reductoisomerase, chloroplastic, sequence (Q65XK0 whole entry): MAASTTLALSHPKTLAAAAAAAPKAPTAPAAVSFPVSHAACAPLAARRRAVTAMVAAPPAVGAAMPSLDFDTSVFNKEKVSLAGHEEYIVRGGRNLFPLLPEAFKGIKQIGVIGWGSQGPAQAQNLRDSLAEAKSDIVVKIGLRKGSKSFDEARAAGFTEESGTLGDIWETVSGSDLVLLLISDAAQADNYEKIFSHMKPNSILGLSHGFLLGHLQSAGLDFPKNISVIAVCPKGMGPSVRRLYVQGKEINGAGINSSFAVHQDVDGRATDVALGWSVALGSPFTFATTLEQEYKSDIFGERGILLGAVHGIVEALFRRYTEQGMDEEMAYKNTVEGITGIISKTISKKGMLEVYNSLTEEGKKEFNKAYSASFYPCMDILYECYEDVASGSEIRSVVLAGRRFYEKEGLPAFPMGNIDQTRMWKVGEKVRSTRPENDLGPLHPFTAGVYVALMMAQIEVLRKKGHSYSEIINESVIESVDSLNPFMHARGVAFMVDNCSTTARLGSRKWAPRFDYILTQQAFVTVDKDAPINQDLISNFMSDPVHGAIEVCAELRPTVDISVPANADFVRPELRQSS

Row | Compound | Ki [1] [µM] | inhibition at 100 µg/mL [2] [%] | inhibition at 10 µg/mL [3] [%] | inhibition at 100 µg/mL [4] [%] | inhibition at 10 µg/mL [5] [%] | inhibition [3] | Ki [6] [µM]
1 | C=CCOc1ccc(C(=N)N)cc1 [4-(ALLYLOXY)BENZIMIDAMIDE HYDROCHLORIDE] | > 1710 |  |  |  |  |  | 
2 | N=C(N)c1ccc(OCc2ccc(Cl)cc2Cl)cc1 | 142 | 62.8 | 21.8 | 95.6 | 33.7 |  | 
3 | CC(C)Oc1ccc(C(=N)N)cc1 [4-ISOPROPOXYBENZIMIDAMIDE HYDROCHLORIDE] | > 1670 |  |  |  |  |  | 
4 | CCOc1ccc(C(=N)N)cc1 [4-ETHOXYBENZIMIDAMIDE HYDROCHLORIDE] | > 1900 | 24.4 |  | 57.1 | 18.5 | inactive | 
5 | CCCCOc1ccc(C(=N)N)cc1 [4-BUTOXYBENZIMIDAMIDE HYDROCHLORIDE] | 3530 |  |  |  |  |  | 
6 | N=C(N)c1ccc(OCc2ccc(Cl)cc2)cc1 | 411 |  |  |  |  |  | 
7 | N=C(N)c1ccc(OCc2cccc(Cl)c2)cc1 | 213 | 56.8 | 21.5 | 95.2 | 31.9 |  | 
8 | N=C(N)c1ccc(OCc2ccccc2)cc1 [4-(BENZYLOXY)BENZIMIDAMIDE HYDROCHLORIDE] | > 1380 |  |  |  |  |  | 
9 | CCCCCOc1ccc(C(=N)N)cc1 [4-(PENTYLOXY)BENZIMIDAMIDE HYDROCHLORIDE] | 1360 |  |  |  |  |  | 
10 | N=C(N)c1ccc(OCc2ccccn2)cc1 | > 649 |  |  |  |  |  | 
11 | N=C(N)c1ccc(OCc2ccccc2F)cc1 | 965 |  |  |  |  |  | 
12 | COc1ccc(C(=N)N)cc1 [4-METHOXYBENZIMIDAMIDE HYDROCHLORIDE] | > 2080 | 18.3 | 16.2 | 48.5 | 6.9 |  | 
13 | CCCCCCOc1ccc(C(=N)N)cc1 [4-(HEXYLOXY)BENZIMIDAMIDE HYDROCHLORIDE] | 190 | 52.1 | 5.3 | 94 | 20.4 |  | 
14 | CCCOc1ccc(C(=N)N)cc1 [4-PROPOXYBENZIMIDAMIDE HYDROCHLORIDE] | > 1670 |  |  |  |  |  | 
15 | CCCCCCCOc1ccc(C(=N)N)cc1 [4-(HEPTYLOXY)BENZIMIDAMIDE HYDROCHLORIDE] | 61 | 53 | 20.1 | 96.3 | 30.1 |  | 
16 | N=C(N)c1ccc(OCCCCCOc2ccc(C(=N)N)cc2)cc1 [PENTAMIDINE ISETHIONATE] | 350 | 59.6 | 12.6 | 90.9 | 22.9 |  | 382
